Measured values taken from ChEMBL document CHEMBL6134802, “A benzoxazolyl urea inhibits VraS and enhances antimicrobials against vancomycin intermediate-resistant Staphylococcus aureus” (Bioorg Med Chem Lett, 2025).
The source made the active and inactive calls. The rule behind the calls is not given here.

Key:
[1] = test system: Staphylococcus aureus; assay: Antibacterial activity against vancomycin-intermediate resistant Staphylococcus aureus Mu50 assessed as enhancement factor at 50 uM in presence of oxacillin (reference value: 256 ug/ml); assay type: functional
[2] = test system: Staphylococcus aureus; assay: Antibacterial activity against vancomycin-intermediate resistant Staphylococcus aureus Mu50 assessed as enhancement factor at 50 uM in presence of vancomycin (reference value: 4 ug/ml); assay type: functional
[3] = test system: Staphylococcus aureus; assay: Synergistic antibacterial activity against vancomycin-intermediate resistant Staphylococcus aureus Mu50 assessed as fractional inhibitory concentration index at >400 times MIC in presence of penicillin G by checkerboard assay; assay type: functional
[4] = test system: Staphylococcus aureus; assay: Antibacterial activity against methicillin-resistant Staphylococcus aureus USA 300 assessed as enhancement factor at 50 uM in presence of penicillin G (reference value: 128 ug/ml); assay type: functional
[5] = test system: Staphylococcus aureus; assay: Antibacterial activity against methicillin-resistant Staphylococcus aureus BAA-1683 assessed as enhancement factor at 50 uM in presence of vancomycin (reference value: 2 ug/ml); assay type: functional
[6] = test system: Staphylococcus aureus; assay: Antibacterial activity against vancomycin-intermediate resistant Staphylococcus aureus Mu50 assessed as fold reduction at 50 uM in presence of penicillin G; assay type: functional
[7] = test system: Staphylococcus aureus; assay: Synergistic antibacterial activity against vancomycin-intermediate resistant Staphylococcus aureus Mu50 assessed as microbial growth at 50 uM in presence of oxacillin at 2 to 4 ug/ml by checkerboard assay; assay type: functional, organism-based
[8] = test system: Staphylococcus aureus; assay: Antibacterial activity against vancomycin-intermediate resistant Staphylococcus aureus Mu50 assessed as enhancement factor at 50 uM in presence of penicillin G (reference value: 16 ug/ml); assay type: functional
[9] = target: T1, Sensor protein VraS (Staphylococcus aureus (strain N315)) (UniProt Q99SZ7); assay: Inhibition of GST tagged VraS ATPase activity in vancomycin-intermediate resistant Staphylococcus aureus assessed as residual activity at 0.1 to 300 uM by kinase-coupled assay relative to control; conditions: dose 0.1-300 µM
T1 sequence (whole entry): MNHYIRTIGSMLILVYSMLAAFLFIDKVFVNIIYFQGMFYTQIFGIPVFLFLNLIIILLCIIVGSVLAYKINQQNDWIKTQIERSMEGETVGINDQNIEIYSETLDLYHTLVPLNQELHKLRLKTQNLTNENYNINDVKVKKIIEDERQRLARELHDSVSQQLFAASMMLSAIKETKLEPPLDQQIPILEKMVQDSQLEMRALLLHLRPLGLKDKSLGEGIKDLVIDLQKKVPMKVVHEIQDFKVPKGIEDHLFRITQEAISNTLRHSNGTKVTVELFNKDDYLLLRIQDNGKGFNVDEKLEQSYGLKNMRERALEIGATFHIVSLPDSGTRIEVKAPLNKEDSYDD

[10] = target: T2, Sensor protein VraS (Staphylococcus aureus (strain N315), UniProt Q99SZ7); assay: Inhibition of GST tagged VraS ATPase activity in vancomycin-intermediate resistant Staphylococcus aureus by kinase-coupled assay
T2 sequence (Q99SZ7 whole entry): T1 sequence (whole entry)

[11] = test system: Staphylococcus aureus; assay: Suppression of oxacillin-induced pbp2 gene transcription in vancomycin-intermediate resistant Staphylococcus aureus Mu50 assessed as decrease in pbp2 transcript level by RT-qPCR analysis; assay type: functional, organism-based
[12] = test system: Staphylococcus aureus; assay: Antibacterial activity against methicillin-resistant Staphylococcus aureus ATCC 33592 assessed as fold reduction at 50 uM in presence of oxacillin (reference value: 128 ug/ml); assay type: functional
[13] = test system: Staphylococcus aureus; assay: Antibacterial activity against methicillin-resistant Staphylococcus aureus BAA-2094 assessed as enhancement factor at 50 uM in presence of oxacillin (reference value: 8 to 16 ug/ml); assay type: functional
[14] = test system: Staphylococcus aureus; assay: Suppression of oxacillin-induced mecA gene transcription in vancomycin-intermediate resistant Staphylococcus aureus Mu50 assessed as decrease in mecA transcript level by RT-qPCR analysis; assay type: functional, organism-based
[15] = test system: Staphylococcus aureus; assay: Antibacterial activity against methicillin-resistant Staphylococcus aureus USA 300 assessed as enhancement factor at 50 uM in presence of oxacillin (reference value: 16 ug/ml); assay type: functional
[16] = test system: Staphylococcus aureus; assay: Antibacterial activity against methicillin-resistant Staphylococcus aureus ATCC 33592 assessed as enhancement factor at 50 uM in presence of vancomycin (reference value: 2 ug/ml); assay type: functional
[17] = test system: Staphylococcus aureus; assay: Antibacterial activity against methicillin-resistant Staphylococcus aureus USA 300 assessed as enhancement factor at 50 uM in presence of vancomycin (reference value: 2 ug/ml); assay type: functional
[18] = test system: Staphylococcus aureus; assay: Synergistic antibacterial activity against vancomycin-intermediate resistant Staphylococcus aureus Mu50 assessed as fractional inhibitory concentration index at >400 times MIC in presence of oxacillin by checkerboard assay; assay type: functional
[19] = test system: Staphylococcus aureus; assay: Antibacterial activity against methicillin-resistant Staphylococcus aureus BAA 42 assessed as enhancement factor at 50 uM in presence of oxacillin (reference value: 64 ug/ml); assay type: functional
[20] = test system: Staphylococcus aureus; assay: Synergistic antibacterial activity against vancomycin-intermediate resistant Staphylococcus aureus Mu50 assessed as microbial growth at 50 uM in presence of vancomycin at 0.125 ug/ml by checkerboard assay; assay type: functional, organism-based
[21] = test system: Staphylococcus aureus; assay: Suppression of oxacillin-induced vraSR gene transcription in vancomycin-intermediate resistant Staphylococcus aureus Mu50 assessed as decrease in vraSR transcript level by RT-qPCR analysis; assay type: functional, organism-based
[22] = test system: Staphylococcus aureus; assay: Antibacterial activity against methicillin-resistant Staphylococcus aureus ATCC 33592 assessed as enhancement factor at 50 uM in presence of oxacillin (reference value: 128 ug/ml); assay type: functional
[23] = test system: Staphylococcus aureus; assay: Suppression of vancomycin-induced pbp2 gene transcription in vancomycin-intermediate resistant Staphylococcus aureus Mu50 assessed as decrease in pbp2 transcript level by RT-qPCR analysis; assay type: functional, organism-based
[24] = test system: Staphylococcus aureus; assay: Antibacterial activity against methicillin-resistant Staphylococcus aureus USA 300 assessed as fold reduction at 50 uM in presence of Chloramphenicol; assay type: functional
[25] = test system: Staphylococcus aureus; assay: Synergistic antibacterial activity against vancomycin-intermediate resistant Staphylococcus aureus Mu50 assessed as fractional inhibitory concentration index at […] in presence of vancomycin by checkerboard assay; assay type: functional
[26] = test system: Staphylococcus aureus; assay: Antibacterial activity against methicillin-resistant Staphylococcus aureus BAA 41 assessed as enhancement factor at 50 uM in presence of oxacillin (reference value: 256 ug/ml); assay type: functional
[27] = test system: Staphylococcus aureus; assay: Antibacterial activity against methicillin-resistant Staphylococcus aureus USA 300 assessed as enhancement factor at 50 uM in presence of Chloramphenicol (reference value: 2 ug/ml); assay type: functional
[28] = test system: Staphylococcus aureus; assay: Suppression of vancomycin-induced vraSR gene transcription in vancomycin-intermediate resistant Staphylococcus aureus Mu50 assessed as decrease in vraSR transcript level by RT-qPCR analysis; assay type: functional, organism-based
[29] = test system: Staphylococcus aureus; assay: Antibacterial activity against methicillin-resistant Staphylococcus aureus USA 300 assessed as fold reduction at 50 uM in presence of vancomycin; assay type: functional
[30] = test system: Staphylococcus aureus; assay: Antibacterial activity against methicillin-resistant Staphylococcus aureus USA 300(BAA-1556) assessed as fold reduction in presence of vancomycin; assay type: functional
[31] = test system: Staphylococcus aureus; assay: Suppression of vancomycin-induced mecA gene transcription in vancomycin-intermediate resistant Staphylococcus aureus Mu50 assessed as decrease in mecA transcript level by RT-qPCR analysis; assay type: functional, organism-based
[32] = test system: Staphylococcus aureus; assay: Antibacterial activity against vancomycin-intermediate resistant Staphylococcus aureus Mu50 assessed as fold reduction at 50 uM in presence of oxacillin; assay type: functional
[33] = test system: Staphylococcus aureus; assay: Antibacterial activity against methicillin-resistant Staphylococcus aureus BAA-1683 assessed as enhancement factor at 50 uM in presence of oxacillin (reference value: 32 ug/ml); assay type: functional
[34] = test system: Staphylococcus aureus; assay: Antibacterial activity against vancomycin-intermediate resistant Staphylococcus aureus Mu50 assessed as enhancement factor at 50 uM in presence of Chloramphenicol (reference value: 16 ug/ml); assay type: functional
[35] = test system: Staphylococcus aureus; assay: Antibacterial activity against methicillin-resistant Staphylococcus aureus BAA-2094 assessed as enhancement factor at 50 uM in presence of vancomycin (reference value: 2 ug/ml); assay type: functional
[36] = Cytotoxicity against MDCK cells assessed as reduction in cell viability incubated for 24 hrs by MTT assay; assay type: toxicity, cell-based, Canis lupus familiaris; conditions: dog
[37] = test system: Staphylococcus aureus; assay: Antibacterial activity against methicillin-resistant Staphylococcus aureus BAA 42 assessed as enhancement factor at 50 uM in presence of vancomycin (reference value: 1 ug/ml); assay type: functional
[38] = test system: Staphylococcus aureus; assay: Synergistic antibacterial activity against vancomycin-intermediate resistant Staphylococcus aureus Mu50 assessed as microbial growth at 50 uM in presence of penicillin G at 4 ug/ml by checkerboard assay; assay type: functional, organism-based
[39] = test system: Staphylococcus aureus; assay: Antibacterial activity against methicillin-resistant Staphylococcus aureus BAA 41 assessed as enhancement factor at 50 uM in presence of vancomycin (reference value: 2 ug/ml); assay type: functional
[40] = test system: Staphylococcus aureus; assay: Antibacterial activity against vancomycin-intermediate resistant Staphylococcus aureus Mu50 assessed as fold reduction at 50 uM in presence of vancomycin; assay type: functional
[41] = test system: Staphylococcus aureus; assay: Antibacterial activity against methicillin-resistant Staphylococcus aureus ATCC 33592 assessed as fold reduction at 50 uM in presence of vancomycin; assay type: functional

**Q.** For `Cc1ccnc(C(NC(=O)Nc2ccc3nnn(C)c3c2)C2CC2)c1` (stereo not given), which MIC [1] is on record?
**A.** 256 µg/mL

**Q.** What about the MIC [2] of the same compound?
**A.** 4 µg/mL

**Q.** Which MIC [1] does the source give for `Cc1ccnc(C(NC(=O)Nc2ccc3c(c2)OCC(=O)N3C)C2CC2)c1` (stereo not given) here?
**A.** 256 µg/mL

**Q.** And the MIC [2]?
**A.** 4 µg/mL

**Q.** For `CCSc1nc2ccc(NC(=O)NC(c3cc(C)ccn3)C3CC3)cc2o1` (stereo not given), which “fractional inhibitory concentration index (FICI)” value [3] is on record?
**A.** <=0.31

**Q.** What about the MIC [4] of the same compound?
**A.** 128 µg/mL

**Q.** And the MIC [5]?
**A.** 0.5 µg/mL

**Q.** And the “fold change (FC)” value [6]?
**A.** 4

**Q.** What about the Activity [7] of the same compound?
**A.** Active

**Q.** And the MIC [8]?
**A.** 4 µg/mL

**Q.** And the MIC [1]?
**A.** 8 µg/mL

**Q.** What about the MIC [2] of the same compound?
**A.** 0.25 µg/mL

**Q.** What about the Activity [9] of the same compound?
**A.** 35%

**Q.** And the IC50 [10]?
**A.** 940 nM

**Q.** And the Activity [11]?
**A.** Active

**Q.** And the “fold change (FC)” value [12]?
**A.** 16

**Q.** And the MIC [13]?
**A.** < 2 µg/mL

**Q.** What about the Activity [14] of the same compound?
**A.** Active

**Q.** And the MIC [15]?
**A.** 16 µg/mL

**Q.** And the MIC [16]?
**A.** < 0.25 µg/mL

**Q.** And the MIC [17]?
**A.** 0.5 µg/mL

**Q.** What about the “fractional inhibitory concentration index (FICI)” value [18] of the same compound?
**A.** <=0.31

**Q.** What about the MIC [19] of the same compound?
**A.** < 2 µg/mL

**Q.** And the Activity [20]?
**A.** Active

**Q.** And the Activity [21]?
**A.** Active

**Q.** What about the MIC [22] of the same compound?
**A.** < 2 µg/mL

**Q.** And the Activity [23]?
**A.** Active

**Q.** What about the “fold change (FC)” value [24] of the same compound?
**A.** 4

**Q.** What about the “fractional inhibitory concentration index (FICI)” value [25] of the same compound?
**A.** <0.12

**Q.** What about the MIC [26] of the same compound?
**A.** < 2 µg/mL

**Q.** What about the MIC [27] of the same compound?
**A.** 0.25 µg/mL

**Q.** And the Activity [28]?
**A.** Active

**Q.** What about the “fold change (FC)” value [29] of the same compound?
**A.** 2

**Q.** And the “fold change (FC)” value [30]?
**A.** 4

**Q.** And the Activity [31]?
**A.** Active

**Q.** And the “fold change (FC)” value [32]?
**A.** 32

**Q.** What about the MIC [33] of the same compound?
**A.** < 2 µg/mL

**Q.** What about the MIC [34] of the same compound?
**A.** 16 µg/mL

**Q.** And the MIC [35]?
**A.** 0.5 µg/mL

**Q.** What about the IC50 at 24 h [36] of the same compound?
**A.** > 100000 nM

**Q.** And the MIC [37]?
**A.** < 0.25 µg/mL

**Q.** And the Activity [38]?
**A.** Active

**Q.** What about the MIC [39] of the same compound?
**A.** 0.25 µg/mL

**Q.** And the “fold change (FC)” value [40]?
**A.** 16

**Q.** And the “fold change (FC)” value [41]?
**A.** ~4
